Reference: PMC9106008, “Design, Synthesis and Biological Evaluation of N-phenylindole Derivatives as Pks13 Inhibitors againstMycobacterium tuberculosis” (Molecules, 2022)
≈ marks a conversion by molar mass, not a printed value. Where two headings read alike, the source gives them in different places.

How the values were obtained:
[1] = target: Pks13-TE (Mycobacterium tuberculosis, UniProt I6X8D2); assay: biochemical; format: binding; details: Pks13-TE 30 µM, 3% DMSO, average of three measurements; for ΔTm at 150 µM: compound 150 µM (1:5); for ΔTm at 300 µM: compound 300 µM (1:10)
[2] = tested on: Mtb H37Rv strain; details: MABA, cited from earlier work
[3] = tested on: Mtb H37Rv strain; assay: microplate alamar blue assay (MABA), MIC; format: cell-based, Mycobacterium tuberculosis; details: lowest concentration leading to at least 90% inhibition of bacterial growth signal, average of three measurements
[4] = in vitro; details: human, microsomes, pH 7.4
[5] = human, microsomes, 0.1 µM, pH 7.4; for Remaining (T = 60 min): 1 h
[6] = liver microsome stability assay; details: for T1/2 / Remaining (T = 60 min): human liver microsomes; for T1/2: 0.1 µM compound, NADPH 1 mM, 37 °C; for Remaining (T = 60 min): 60 min incubation
[7] = Mycobacterium tuberculosis, H37RV, read-out: MIC

Chain of Pks13-TE (I6X8D2 1451-1733): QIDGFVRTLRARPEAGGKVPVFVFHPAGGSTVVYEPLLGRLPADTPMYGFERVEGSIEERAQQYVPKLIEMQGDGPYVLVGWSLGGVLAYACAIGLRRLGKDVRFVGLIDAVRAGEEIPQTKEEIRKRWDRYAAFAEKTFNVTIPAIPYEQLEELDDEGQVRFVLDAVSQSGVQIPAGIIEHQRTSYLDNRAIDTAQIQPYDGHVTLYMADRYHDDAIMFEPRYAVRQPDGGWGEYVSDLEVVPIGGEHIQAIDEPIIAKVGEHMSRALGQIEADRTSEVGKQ

O=c1oc2cc(O)ccc2c2oc3ccc(O)c(CN4CCCCC4)c3c12 [Compound 7, reference compound]
ΔTm at 150 µM [1]: 11.4 ± 0.03 °C | ΔTm at 300 µM [1]: 10.5 ± 0.01 °C | MIC ([2]; reference compounds for comparison): 0.0039 µg/mL (≈ 0.0107 µM)

CCOC(=O)c1c(-c2ccccc2)[nH]c2ccc(O)c(CN3CCCCC3)c12 [Compound 9]
MIC ([2]; reference compound for comparison): 32 µg/mL (≈ 84.6 µM)

CCOC(=O)c1c(-c2ccc(OC)cc2)[nH]c2ccc(O)c(CN3CCCCC3)c12 [Compound 13, Ethyl 5-hydroxy-2-(4-methoxyphenyl)-4-(piperidin-1-ylmethyl)-1H-indole-3-carboxylate]
MIC [3, 7]: 32 µg/mL (≈ 78.3 µM)

CCOC(=O)c1c(-c2ccc(O)cc2)[nH]c2ccc(O)c(CN3CCCCC3)c12 [Compound 14, Ethyl 5-hydroxy-2-(4-hydroxyphenyl)-4-(piperidin-1-ylmethyl)-1H-indole-3-carboxylate]
ΔTm at 150 µM [1]: 5.5 ± 0.04 °C | ΔTm at 300 µM [1]: 4.9 ± 0.02 °C

CCOC(=O)c1c(-c2ccc(OC)cc2)n(-c2ccccc2)c2ccc(O)c(CN3CCCCC3)c12 [Compound 17, Ethyl 5-hydroxy-2-(4-methoxyphenyl)-1-phenyl-4-(piperidin-1-ylmethyl)-1H-indole-3-carboxylate]
MIC [3, 7]: 4 µg/mL (≈ 8.25 µM)

CCOC(=O)c1c(-c2ccc(O)cc2)n(-c2ccccc2)c2ccc(O)c(CN3CCCCC3)c12 [Compound 18, Ethyl 5-hydroxy-2-(4-hydroxyphenyl)-1-phenyl-4-(piperidin-1-ylmethyl)-1H-indole-3-carboxylate]
MIC [3, 7]: 2 to 32 µg/mL (≈ 4.25 to 68 µM) | MIC [3]: 2 µg/mL (≈ 4.25 µM)

COc1ccc(-c2c(C(C)=O)c3c(CN4CCCCC4)c(O)ccc3n2-c2ccccc2)cc1 [Compound 19, 1-(5-hydroxy-2-(4-methoxyphenyl)-1-phenyl-4-(piperidin-1-ylmethyl)-1H-indol-3-yl) ethan-1-one]
MIC [3, 7]: 4 µg/mL (≈ 8.8 µM)

CC(=O)c1c(-c2ccc(O)cc2)n(-c2ccccc2)c2ccc(O)c(CN3CCCCC3)c12 [Compound 20, 1-(5-hydroxy-2-(4-hydroxyphenyl)-1-phenyl-4-(piperidin-1-ylmethyl)-1H-indol-3-yl) ethan-1-one]
MIC [3, 7]: 16 µg/mL (≈ 36.3 µM)

CNC(=O)c1c(-c2ccc(OC)cc2)n(-c2ccccc2)c2ccc(O)c(CN3CCCCC3)c12 [Compound 22, 5-hydroxy-2-(4-methoxyphenyl)-N-methyl-1-phenyl-4-(piperidin-1-ylmethyl)-1H-indole-3-carboxamide]
MIC [3, 7]: 16 µg/mL (≈ 34.1 µM)

CCNC(=O)c1c(-c2ccc(OC)cc2)n(-c2ccccc2)c2ccc(O)c(CN3CCCCC3)c12 [Compound 23, N-ethyl-5-hydroxy-2-(4-methoxyphenyl)-1-phenyl-4-(piperidin-1-ylmethyl)-1H-indole-3-carboxamide]
MIC [3, 7]: 16 µg/mL (≈ 33.1 µM)

CNC(=O)c1c(-c2ccc(O)cc2)n(-c2ccccc2)c2ccc(O)c(CN3CCCCC3)c12 [Compound 24, 5-hydroxy-2-(4-hydroxyphenyl)-N-methyl-1-phenyl-4-(piperidin-1-ylmethyl)-1H-indole-3-carboxamide]
MIC [3, 7]: 4 µg/mL (≈ 8.78 µM)

CCNC(=O)c1c(-c2ccc(O)cc2)n(-c2ccccc2)c2ccc(O)c(CN3CCCCC3)c12 [Compound 25, N-ethyl-5-hydroxy-2-(4-hydroxyphenyl)-1-phenyl-4-(piperidin-1-ylmethyl)-1H-indole-3-carboxamide]
MIC [3, 7]: 8 µg/mL (≈ 17 µM)

CCOC(=O)c1c(C)n(-c2ccccc2)c2ccc(O)c(CN3CCCCC3)c12 [Compound 28, Ethyl 5-hydroxy-2-methyl-1-phenyl-4-(piperidin-1-ylmethyl)-1H-indole-3-carboxylate]
ΔTm at 150 µM [1]: 8.6 ± 0.01 °C | ΔTm at 300 µM [1]: 7.8 ± 0.04 °C | MIC [3, 7]: 8 µg/mL (≈ 20.4 µM)

CNC(=O)c1c(C)n(-c2ccccc2)c2ccc(O)c(CN3CCCCC3)c12 [Compound 29, 5-hydroxy-N,2-dimethyl-1-phenyl-4-(piperidin-1-ylmethyl)-1H-indole-3-carboxamide]
MIC [3, 7]: > 64 µg/mL | MIC [3]: >64 µg/mL

CNC(=O)c1c(C)n(-c2ccc(OC)cc2)c2ccc(O)c(CN3CCCCC3)c12 [Compound 30, 5-hydroxy-1-(4-methoxyphenyl)-N,2-dimethyl-4-(piperidin-1-ylmethyl)-1H-indole-3-carboxamide]
MIC [3, 7]: 16 µg/mL (≈ 39.3 µM)

CCOC(=O)c1c(C)n(-c2ccc(C)cc2)c2ccc(O)c(CN3CCCCC3)c12 [Compound 31, Ethyl 5-hydroxy-2-methyl-4-(piperidin-1-ylmethyl)-1-(p-tolyl)-1H-indole-3-carboxylate]
MIC [3, 7]: 0.5 to 8 µg/mL (≈ 1.23 to 19.7 µM) | MIC [3]: 1 µg/mL (≈ 2.46 µM)

CCOC(=O)c1c(C)n(-c2ccc(OC)cc2)c2ccc(O)c(CN3CCCCC3)c12 [Compound 34, Ethyl 5-hydroxy-1-(4-methoxyphenyl)-2-methyl-4-(piperidin-1-ylmethyl)-1H-indole-3-carboxylate]
MIC [3, 7]: 0.5 to 8 µg/mL (≈ 1.18 to 18.9 µM) | MIC [3]: 1 µg/mL (≈ 2.37 µM)

CCOC(=O)c1c(C)n(-c2ccc(F)cc2)c2ccc(O)c(CN3CCCCC3)c12 [Compound 37, Ethyl 1-(4-fluorophenyl)-5-hydroxy-2-methyl-4-(piperidin-1-ylmethyl)-1H-indole-3-carboxylate]
MIC [3, 7]: 0.5 to 8 µg/mL (≈ 1.22 to 19.5 µM) | MIC [3]: 1 µg/mL (≈ 2.44 µM)

CC(=O)c1c(C)n(-c2ccc(-c3ccccc3)cc2)c2ccc(O)c(CN3CCCCC3)c12 [Compound 45, 1-(1-([1,1′-biphenyl]-4-yl)-5-hydroxy-2-methyl-4-(piperidin-1-ylmethyl)-1H-indol-3-yl)ethan-1-one]
ΔTm at 150 µM [1]: 14 ± 0.04 °C | ΔTm at 300 µM [1]: 13.2 ± 0.65 °C | MIC [3, 7]: 0.0625 µg/mL (≈ 0.143 µM)

CC(=O)c1c(C)n(-c2ccc(N3CCCCC3)cc2)c2ccc(O)c(CN3CCCCC3)c12 [Compound 48, 1-(5-hydroxy-2-methyl-1-(4-(piperidin-1-yl)phenyl)-4-(piperidin-1-ylmethyl)-1H-indol-3-yl) ethan-1-one]
ΔTm at 150 µM [1]: 14.6 ± 0.04 °C | ΔTm at 300 µM [1]: 14 ± 0.01 °C | CLint scaled at 0.1 µM [4]: 60.2 mL/min/kg | microsomal CLint at 0.1 µM [4]: 66.9 µL/min/mg | Remaining (T = 60 min) [5]: 11.3% | MIC [3, 7]: 0.125 µg/mL (≈ 0.281 µM) | half-life at 0.1 µM ([6]; human, liver microsomes, pH 7.4): 20.7 min

CCOC(=O)c1c(C)n(-c2ccc(N(C)C)cc2)c2ccc(O)c(CN3CCCCC3)c12 [Compound 49, Ethyl 1-(4-(dimethylamino)phenyl)-5-hydroxy-2-methyl-4-(piperidin-1-ylmethyl)-1H-indole-3-carboxylate]
MIC [3, 7]: 0.5 to 8 µg/mL (≈ 1.15 to 18.4 µM) | MIC [3]: 1 µg/mL (≈ 2.3 µM)

CC(=O)c1c(C)n(-c2ccc(N(C)C)cc2)c2ccc(O)c(CN3CCCCC3)c12 [Compound 50, 1-(1-(4-(dimethylamino)phenyl)-5-hydroxy-2-methyl-4-(piperidin-1-ylmethyl)-1H-indol-3-yl)ethan-1-one]
MIC [3, 7]: 0.5 µg/mL (≈ 1.23 µM)

CC(=O)c1c(C)n(-c2ccc(N(C)C)cc2)c2ccc(O)c(CN(C)C)c12 [Compound 51, 1-(4-((dimethylamino)methyl)-1-(4-(dimethylamino)phenyl)-5-hydroxy-2-methyl-1H-indol-3-yl)ethan-1-one]
MIC [3, 7]: 2 µg/mL (≈ 5.47 µM)

CC(=O)c1c(C)n(-c2ccc(N(C)C)cc2)c2ccc(O)c(CN3CCCC3)c12 [Compound 52, 1-(1-(4-(dimethylamino)phenyl)-5-hydroxy-2-methyl-4-(pyrrolidin-1-ylmethyl)-1H-indol-3-yl)ethan-1-one]
ΔTm at 150 µM [1]: 11.4 ± 0.02 °C | ΔTm at 300 µM [1]: 10.3 ± 0.04 °C | MIC [3, 7]: 0.5 µg/mL (≈ 1.28 µM)

CC(=O)c1c(C)n(-c2ccc(N(C)C)cc2)c2ccc(O)c(CN3CCC(C)CC3)c12 [Compound 53, 1-(1-(4-(dimethylamino)phenyl)-5-hydroxy-2-methyl-4-((4-methylpiperidin-1-yl)methyl)-1H-indol-3-yl)ethan-1-one]
MIC [3, 7]: 1 µg/mL (≈ 2.38 µM)

CC(=O)c1c(C)n(-c2ccc(C(C)C)cc2)c2ccc(O)c(CN3CCCCC3)c12 [Compound 54, 1-(5-hydroxy-1-(4-isopropylphenyl)-2-methyl-4-(piperidin-1-ylmethyl)-1H-indol-3-yl)ethan-1-one]
MIC [3, 7]: 0.125 µg/mL (≈ 0.309 µM)

CC(=O)c1c(C)n(-c2ccc(C(C)(C)C)cc2)c2ccc(O)c(CN3CCCCC3)c12 [Compound 55, 1-(1-(4-(tert-butyl)phenyl)-5-hydroxy-2-methyl-4-(piperidin-1-ylmethyl)-1H-indol-3-yl)ethan-1-one]
MIC [3, 7]: 0.125 µg/mL (≈ 0.299 µM)

CC(=O)c1c(C)n(-c2ccc(C(C)(C)C)cc2)c2ccc(O)c(CN3CCCC3)c12 [Compound 56, 1-(1-(4-(tert-butyl)phenyl)-5-hydroxy-2-methyl-4-(pyrrolidin-1-ylmethyl)-1H-indol-3-yl)ethan-1-one]
MIC [3, 7]: 0.25 µg/mL (≈ 0.618 µM)

CC(=O)c1c(C)n(-c2ccc(Br)cc2)c2ccc(O)c(CN3CCCCC3)c12 [Compound 58, 1-(1-(4-bromophenyl)-5-hydroxy-2-methyl-4-(piperidin-1-ylmethyl)-1H-indol-3-yl)ethan-1-one]
ΔTm at 150 µM [1]: 9.5 ± 0.04 °C | ΔTm at 300 µM [1]: 7.6 ± 0.01 °C | CLint(liver) [5]: 21.5 mL/min/kg | CLint(mic) [5]: 23.9 µL/min/mg | Remaining (T = 60 min) [5]: 47.3% | MIC [3, 7]: 0.125 µg/mL (≈ 0.283 µM) | T1/2 [6]: 58.0 min

O=C(O)Cc1ccccc1Nc1c(Cl)cccc1Cl [Diclofenac]
Remaining (T = 60 min) [6]: 0.1% | CLint(liver) ([6]; human, scaled from CLint(mic) with 45 mg microsomal protein/g liver, 20 g liver/kg): 223.1 mL/min/kg

Ethyl 1-(4-(tert-butyl)phenyl)-5-hydroxy-2-methyl-4-(piperidin-1-ylmethyl)-1H-indole-3-carboxylate [Compound 57]
MIC [3]: 0.5 µg/mL
